Reference: ChEMBL document CHEMBL1208702, “Use of 2-[(18)F]fluoroethylazide for the Staudinger ligation - Preparation and characterisation of GABA(A) receptor binding 4-quinolones” (Bioorg Med Chem Lett, 2010)

Tests used:
Liver [1] = test: Biodistribution in iv dosed Sprague-Dawley rats liver after 2 mins by gamma counter; assay type: ADME, organism-based; conditions: rat, in vivo
Lung [2] = test: Biodistribution in iv dosed Sprague-Dawley rats lung after 2 mins by gamma counter; assay type: ADME, organism-based; conditions: rat, in vivo
Spleen [3] = test: Biodistribution in iv dosed Sprague-Dawley rats spleen after 2 mins by gamma counter; assay type: ADME, organism-based; conditions: rat, in vivo
Muscle tissue [4] = test: Biodistribution in iv dosed Sprague-Dawley rats muscle after 2 mins by gamma counter; assay type: ADME, organism-based; conditions: rat, in vivo
Kidney [5] = test: Biodistribution in iv dosed Sprague-Dawley rats kidneys after 2 mins by gamma counter; assay type: ADME, organism-based; conditions: rat, in vivo
[6] = Biodistribution in iv dosed Sprague-Dawley rats stomach after 2 mins by gamma counter; assay type: ADME, organism-based; conditions: rat, in vivo
[7] = Biodistribution in iv dosed Sprague-Dawley rats small intestine after 2 mins by gamma counter; assay type: ADME, organism-based; conditions: rat, in vivo
[8] = Biodistribution in iv dosed Sprague-Dawley rats large intestine after 2 mins by gamma counter; assay type: ADME, organism-based; conditions: rat, in vivo
Liver [9] = test: Biodistribution in iv dosed Sprague-Dawley rats liver after 30 mins by gamma counter; assay type: ADME, organism-based; conditions: rat, in vivo, 0.5 h
Lung [10] = test: Biodistribution in iv dosed Sprague-Dawley rats lung after 30 mins by gamma counter; assay type: ADME, organism-based; conditions: rat, in vivo, 0.5 h
Spleen [11] = test: Biodistribution in iv dosed Sprague-Dawley rats spleen after 30 mins by gamma counter; assay type: ADME, organism-based; conditions: rat, in vivo, 0.5 h
Muscle tissue [12] = test: Biodistribution in iv dosed Sprague-Dawley rats muscle after 30 mins by gamma counter; assay type: ADME, organism-based; conditions: rat, in vivo, 0.5 h
Kidney [13] = test: Biodistribution in iv dosed Sprague-Dawley rats kidneys after 30 mins by gamma counter; assay type: ADME, organism-based; conditions: rat, in vivo, 0.5 h
[14] = Biodistribution in iv dosed Sprague-Dawley rats stomach after 30 mins by gamma counter; assay type: ADME, organism-based; conditions: rat, in vivo, 0.5 h
[15] = Biodistribution in iv dosed Sprague-Dawley rats small intestine after 30 mins by gamma counter; assay type: ADME, organism-based; conditions: rat, in vivo, 0.5 h
[16] = Biodistribution in iv dosed Sprague-Dawley rats large intestine after 30 mins by gamma counter; assay type: ADME, organism-based; conditions: rat, in vivo, 0.5 h
[17] = Biodistribution in iv dosed Sprague-Dawley rats bladder and urine after 30 mins by gamma counter; assay type: ADME, organism-based; conditions: rat, in vivo, 0.5 h
[18] = Biodistribution in iv dosed Sprague-Dawley rats fat after 30 mins by gamma counter; assay type: ADME, organism-based, Adipose tissue; conditions: rat, in vivo, 0.5 h
Blood = test: Biodistribution in iv dosed Sprague-Dawley rats blood after 60 mins by gamma counter; assay type: ADME, organism-based; conditions: rat, in vivo, 1 h
Brain = test: Biodistribution in iv dosed Sprague-Dawley rats brain after 60 mins by gamma counter; assay type: ADME, organism-based; conditions: rat, in vivo, 1 h
Heart = test: Biodistribution in iv dosed Sprague-Dawley rats heart after 60 mins by gamma counter; assay type: ADME, organism-based; conditions: rat, in vivo, 1 h
Bone = test: Biodistribution in iv dosed Sprague-Dawley rats bone after 60 mins by gamma counter; assay type: ADME, organism-based, Bone element; conditions: rat, in vivo, 1 h
Liver [19] = test: Biodistribution in iv dosed Sprague-Dawley rats liver after 60 mins by gamma counter; assay type: ADME, organism-based; conditions: rat, in vivo, 1 h
Lung [20] = test: Biodistribution in iv dosed Sprague-Dawley rats lung after 60 mins by gamma counter; assay type: ADME, organism-based; conditions: rat, in vivo, 1 h
Spleen [21] = test: Biodistribution in iv dosed Sprague-Dawley rats spleen after 60 mins by gamma counter; assay type: ADME, organism-based; conditions: rat, in vivo, 1 h
Muscle tissue [22] = test: Biodistribution in iv dosed Sprague-Dawley rats muscle after 60 mins by gamma counter; assay type: ADME, organism-based; conditions: rat, in vivo, 1 h
Kidney [23] = test: Biodistribution in iv dosed Sprague-Dawley rats kidneys after 60 mins by gamma counter; assay type: ADME, organism-based; conditions: rat, in vivo, 1 h
[24] = Biodistribution in iv dosed Sprague-Dawley rats stomach after 60 mins by gamma counter; assay type: ADME, organism-based; conditions: rat, in vivo, 1 h
[25] = Biodistribution in iv dosed Sprague-Dawley rats small intestine after 60 mins by gamma counter; assay type: ADME, organism-based; conditions: rat, in vivo, 1 h
[26] = Biodistribution in iv dosed Sprague-Dawley rats large intestine after 60 mins by gamma counter; assay type: ADME, organism-based; conditions: rat, in vivo, 1 h
[27] = Biodistribution in iv dosed Sprague-Dawley rats bladder and urine after 60 mins by gamma counter; assay type: ADME, organism-based; conditions: rat, in vivo, 1 h
[28] = Biodistribution in iv dosed Sprague-Dawley rats fat after 60 mins by gamma counter; assay type: ADME, organism-based, Adipose tissue; conditions: rat, in vivo, 1 h
[29] = Drug uptake in high GABAA expression areas of Wistar rat brain thalamus/striatum cortex at 0.1 MBq/ml after 60 mins by autoradiographic analysis; assay type: ADME, tissue-based; conditions: in vivo, 1 h
[30] = Drug uptake in low GABAA expression areas of Wistar rat brain thalamus/striatum cortex at 0.1 MBq/ml after 60 mins by autoradiographic analysis; assay type: ADME, tissue-based; conditions: in vivo, 1 h
[31] = Drug uptake in Wistar rat brain thalamus/striatum cortex at 0.1 MBq/ml after 60 mins by autoradiographic analysis; assay type: ADME, tissue-based; conditions: in vivo, 1 h
[32] = Drug uptake in high GABAA expression areas of Wistar rat brain prefrontal cortex at 0.1 MBq/ml after 60 mins by autoradiographic analysis; assay type: ADME, tissue-based; conditions: in vivo, 1 h
[33] = Drug uptake in low GABAA expression areas of Wistar rat brain prefrontal cortex at 0.1 MBq/ml after 60 mins by autoradiographic analysis; assay type: ADME, tissue-based; conditions: in vivo, 1 h
[34] = Drug uptake in Wistar rat brain prefrontal cortex olfactory tubercles at 0.1 MBq/ml after 60 mins by autoradiographic analysis; assay type: ADME, tissue-based; conditions: in vivo, 1 h

In the case of `O=C(NCC[18F])c1c[nH]c2ccc(Cc3ccccc3)cc2c1=O`, the Drug uptake (Liver [1]) is reported as 28.5 %ID, the Drug uptake (Lung [2]) is reported as 1.5 %ID and the Drug uptake (Spleen [3]) is reported as 0.3 %ID. The Drug uptake (Muscle tissue [4]) was 47.3 %ID, the Drug uptake (Kidney [5]) was 3.6 %ID and the Drug uptake [6] was 1.2 %ID. It also gave a Drug uptake [7] of 7 %ID, a Drug uptake [8] of 1.3 %ID and a Drug uptake (Liver [9]) of 18.7 %ID. It also gave a Drug uptake (Lung [10]) of 0.4 %ID, a Drug uptake (Spleen [11]) of 0.1 %ID and a Drug uptake (Muscle tissue [12]) of 16.5 %ID. It also gave a Drug uptake (Kidney [13]) of 1.5 %ID, a Drug uptake [14] of 0.5 %ID and a Drug uptake [15] of 50.3 %ID. It also gave a Drug uptake [16] of 1.7 %ID, a Drug uptake [17] of 4.2 %ID and a Drug uptake [18] of 1.7 %ID. The Drug uptake (Blood) was 0.7 %ID, the Drug uptake (Brain) was 0 %ID and the Drug uptake (Heart) was 0.1 %ID. The Drug uptake (Bone) was 1.4 %ID, the Drug uptake (Liver [19]) was 4.8 %ID and the Drug uptake (Lung [20]) was 0.1 %ID. For the same compound, the Drug uptake (Spleen [21]) was 0 %ID, the Drug uptake (Muscle tissue [22]) was 4.6 %ID and the Drug uptake (Kidney [23]) was 0.5 %ID. For the same compound, the Drug uptake [24] was 0.2 %ID, the Drug uptake [25] was 74.5 %ID and the Drug uptake [26] was 1.9 %ID. For the same compound, the Drug uptake [27] was 7.3 %ID, the Drug uptake [28] was 0.3 %ID and the Drug uptake [29] was 76%. The Drug uptake [30] was 76%, the Drug uptake [31] was 60% and the Drug uptake [32] was 78%. The Drug uptake [33] was 76% and the Drug uptake [34] was 60%.
